Where “and” joins values, the source holds several entries; their conditions need not be identical. Identical values can stand only once. Like-named read-outs stand apart in the source and are kept apart here.
What was measured:
Type in all cases: cell-based
[1] = tested on: HOS human osteosarcoma cells; test: Cell count (Trypan Blue) viability, drug combination administration, HOS cells; details: 24 h, read-out: cell viability
Experimental: HEK293 cells, HOS human osteosarcoma cells and 143B human osteosarcoma cells were subcultured in an incubator at 37° C., 5% CO2 using a RPMI-1640 medium containing 10% fetal bovine serum (FBS).
(§1) 10 μL was taken for counting.
(3) After counting, the cells were diluted to 1×10^5 cells/ml.
(§2) (5) After 24 h of dosing, the medium was discarded. […] The cells were digested for 5 min.

[2] = tested on: 143B human osteosarcoma cells; test: Cell count (Trypan Blue) viability, drug combination administration, 143B cells; details: 24 h; for viability at 20 µM / viability at 50 µM / viability at 10 µM: Homo sapiens, read-out: cell viability
Experimental: as §1, §2

DB lymphoma cells = test: Cell viability of lymphoma cells by the method of Example 1; details: Homo sapiens
Experimental: (§3) (6) After digestion, equivalent amounts of PBS were added into each well and mixed uniformly. Then, 10 μL/well of Trypan Blue solution was added and mixed uniformly. 10 μL of the well-mixed solution was taken and counted. In accordance with “Cell viability=Cell Count of Test Group/Cell Count of Control Group×100%”, the cell viability of various groups was calculated.
For example, as for the DB lymphoma cells, the control group involves adding the solvent DMSO alone, the Vc group involves adding 2 mM of ascorbic acid, the low-dose Nic group involves adding 1 μM of Niclosamide, the low-dose Nic+Vc group involves adding 1 μM of Niclosamide and 2 mM of ascorbic acid, the high-dose Nic group involves adding 2 μM of Niclosamide, and the high-dose Nic+Vc group involves adding 2 μM of Niclosamide and 2 mM of ascorbic acid.

MC38 colon cancer cells = test: Cell viability of colon cancer cells by the method of Example 1; details: Mus musculus
Experimental: as §3
For example, as for MC38 colon cancer cells, the control group involves adding the solvent DMSO alone, the Nic group involves adding 1 μM of Niclosamide, the Vc group involves adding 0.5 mM of ascorbic acid, the Nic+Vc group involves adding 1 μM of Niclosamide and 0.5 mM of ascorbic acid.

COc1ccc2cc3[n+](cc2c1OC)CCc1cc2c(cc1-3)OCO2 [berberine]
viability at 20 µM ([1]; HOS): 82% | viability at 20 µM ([2]; 143B): 94%

CC1=C(CC(=O)O)c2cc(F)ccc2/C1=C\c1ccc([S+](C)[O-])cc1 (centres unmarked) [Sulindac]
viability at 50 µM ([1]; HOS): 92%

Cn1c(=O)c2c(ncn2CC(=O)Nc2ccc(-c3ccccc3)nn2)n(C)c1=O [ETC-159]
viability at 20 µM ([1]; HOS): 67% | viability at 20 µM ([2]; 143B): 60%

CS(=O)(=O)c1ccc(C(=O)Nc2ccc(Cl)c(-c3ccccn3)c2)c(Cl)c1 [Vismodegib]
viability at 50 µM ([1]; HOS cells, single drug 50 μM): 53% | viability at 50 µM ([2]; 143B cells, single drug 50 μM): 60%

Cc1c(C(=O)Nc2ccc(N3C[C@@H](C)O[C@@H](C)C3)nc2)cccc1-c1ccc(OC(F)(F)F)cc1 [Sonidegib]
viability at 10 µM ([1]; HOS): 89% | viability at 10 µM ([2]; 143B): 74%

CC(C)(C(=O)NCC(F)(F)C(F)(F)F)C(=O)N[C@@H]1C(=O)Nc2ccccc2-c2ccccc21 [RO4929097]
viability at 10 µM ([1]; HOS): 56% | viability at 10 µM ([2]; 143B): 58%

O=C1O[C@H]([C@@H](O)CO)C([O-])=C1O.[Na+] [sodium ascorbate]
cell viability ([2]; 143B cells, 0.5 mM sodium ascorbate alone): 106% and 90% and 83% and 77% and 80% and 81% and 82%

O=C(Nc1ccc([N+](=O)[O-])cc1Cl)c1cc(Cl)ccc1O [Niclosamide]
viability at 1 µM (DB lymphoma cells; 1 μM Niclosamide alone (low-dose)): 57% | viability at 2 µM (DB lymphoma cells; 2 μM Niclosamide alone (high-dose)): 52% | viability at 50 µM ([1]; HOS): 56% | viability at 50 µM ([2]; 143B): 59% | viability at 1 µM (MC38 colon cancer cells; MC-38, 1 μM Niclosamide alone): 82%

O=C(O)CC[C@H]1CC[C@@](c2cc(F)ccc2F)(S(=O)(=O)c2ccc(Cl)cc2)CC1 [MK0752]
viability at 20 µM ([1]; HOS): 67% | viability at 20 µM ([2]; 143B): 62%

Cc1cc(-c2ncc(CC(=O)Nc3ccc(-c4cnccn4)cn3)cc2C)ccn1 [LGK974]
viability at 20 µM ([1]; HOS): 67% | viability at 20 µM ([2]; 143B): 64%

O=C1O[C@H]([C@@H](O)CO)C(O)=C1O [ascorbic acid]
viability at 2000 µM (DB lymphoma cells; 2 mM ascorbic acid alone): 76% | viability at 500 µM (MC38 colon cancer cells; MC-38, 0.5 mM ascorbic acid alone): 105%
